According to ChEMBL document CHEMBL4507257, “Data for DCP probe ABT-100” (2021):

Key:
[1] = biological target: Dual serine/threonine and tyrosine protein kinase (Homo sapiens) (UniProt Q6XUX3); conditions: Compound concentration 1000.0 nM
[2] = biological target: 3-phosphoinositide-dependent protein kinase 1 (Homo sapiens) (UniProt O15530); conditions: Compound concentration 1000.0 nM
[3] = biological target: Tyrosine-protein kinase Mer (Homo sapiens) (UniProt Q12866); conditions: Compound concentration 1000.0 nM
[4] = biological target: Serine/threonine-protein kinase pim-1 (Homo sapiens) (UniProt P11309); conditions: Compound concentration 1000.0 nM
[5] = biological target: Serine/threonine-protein kinase SBK1 (Homo sapiens) (UniProt Q52WX2); conditions: Compound concentration 1000.0 nM
[6] = biological target: Cyclin-dependent kinase 11B (Homo sapiens) (UniProt P21127); conditions: Compound concentration 1000.0 nM
[7] = biological target: Interferon-induced, double-stranded RNA-activated protein kinase (Homo sapiens) (UniProt P19525); conditions: Compound concentration 1000.0 nM
[8] = biological target: D(1A) dopamine receptor (Homo sapiens) (UniProt P21728); conditions: Compound concentration 10.0 uM
[9] = biological target: Sodium-dependent dopamine transporter (Homo sapiens) (UniProt Q01959); conditions: Compound concentration 10.0 uM
[10] = biological target: Serine/threonine-protein kinase SIK3 (Homo sapiens) (UniProt Q9Y2K2); conditions: Compound concentration 1000.0 nM
[11] = biological target: Muscarinic acetylcholine receptor M3 (Homo sapiens) (UniProt P20309); conditions: Compound concentration 10.0 uM
[12] = biological target: Casein kinase I isoform gamma-3 (Homo sapiens) (UniProt Q9Y6M4); conditions: Compound concentration 1000.0 nM
[13] = biological target: Bone morphogenetic protein receptor type-1B (Homo sapiens) (UniProt O00238); conditions: Compound concentration 1000.0 nM
[14] = system: Epidermal growth factor receptor (Homo sapiens), P00533 [UNDEFINED MUTATION]; conditions: Compound concentration 1000.0 nM
[15] = biological target: Receptor-interacting serine/threonine-protein kinase 4 (Homo sapiens) (UniProt P57078); conditions: Compound concentration 1000.0 nM
[16] = system: Mast/stem cell growth factor receptor Kit (Homo sapiens), P10721 [D816H]; conditions: Compound concentration 1000.0 nM
[17] = biological target: Testis-specific serine/threonine-protein kinase 3 (Homo sapiens) (UniProt Q96PN8); conditions: Compound concentration 1000.0 nM
[18] = biological target: Serine/threonine-protein kinase tousled-like 2 (Homo sapiens) (UniProt Q86UE8); conditions: Compound concentration 1000.0 nM
[19] = system: Mast/stem cell growth factor receptor Kit (Homo sapiens), P10721 [D816V]; conditions: Compound concentration 1000.0 nM
[20] = biological target: LIM domain kinase 2 (Homo sapiens) (UniProt P53671); conditions: Compound concentration 1000.0 nM
Sequence of LIM domain kinase 2 (Homo sapiens) (P53671 whole entry, looked up, the tested form may be a part): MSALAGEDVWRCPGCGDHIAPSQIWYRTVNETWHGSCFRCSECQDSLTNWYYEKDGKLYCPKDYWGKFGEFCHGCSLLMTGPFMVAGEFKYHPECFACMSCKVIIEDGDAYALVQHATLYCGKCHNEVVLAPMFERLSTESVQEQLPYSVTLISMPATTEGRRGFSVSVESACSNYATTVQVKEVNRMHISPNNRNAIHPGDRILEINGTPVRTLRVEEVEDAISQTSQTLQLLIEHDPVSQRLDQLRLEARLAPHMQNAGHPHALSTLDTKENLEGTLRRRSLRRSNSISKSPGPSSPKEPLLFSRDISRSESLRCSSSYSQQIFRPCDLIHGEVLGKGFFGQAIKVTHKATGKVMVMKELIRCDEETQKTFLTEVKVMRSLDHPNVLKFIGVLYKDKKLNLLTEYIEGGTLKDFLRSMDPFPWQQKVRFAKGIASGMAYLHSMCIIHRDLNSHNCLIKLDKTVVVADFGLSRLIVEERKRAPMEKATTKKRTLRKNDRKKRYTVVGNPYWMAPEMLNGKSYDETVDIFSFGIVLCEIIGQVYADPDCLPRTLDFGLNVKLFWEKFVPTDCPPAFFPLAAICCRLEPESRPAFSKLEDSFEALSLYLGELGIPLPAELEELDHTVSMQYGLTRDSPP

[21] = biological target: Transient receptor potential cation channel subfamily M member 6 (Homo sapiens) (UniProt Q9BX84); conditions: Compound concentration 1000.0 nM
[22] = biological target: T1, Muscarinic acetylcholine receptor M4 (Homo sapiens) (UniProt P08173); conditions: Compound concentration 10.0 uM
T1 sequence (whole entry): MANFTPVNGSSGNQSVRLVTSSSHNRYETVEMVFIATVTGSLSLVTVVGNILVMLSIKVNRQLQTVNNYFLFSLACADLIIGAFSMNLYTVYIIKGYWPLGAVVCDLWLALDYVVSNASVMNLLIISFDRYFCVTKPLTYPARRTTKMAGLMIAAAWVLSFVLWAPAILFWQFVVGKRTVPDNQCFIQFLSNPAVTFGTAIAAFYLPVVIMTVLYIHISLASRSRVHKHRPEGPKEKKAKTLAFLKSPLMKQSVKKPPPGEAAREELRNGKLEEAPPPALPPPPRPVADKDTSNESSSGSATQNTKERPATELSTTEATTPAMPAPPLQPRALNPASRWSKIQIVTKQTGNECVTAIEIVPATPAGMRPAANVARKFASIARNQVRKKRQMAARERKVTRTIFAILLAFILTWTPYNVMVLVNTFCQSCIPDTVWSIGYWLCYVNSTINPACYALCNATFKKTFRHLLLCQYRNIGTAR

[23] = biological target: Interleukin-1 receptor-associated kinase 1 (Homo sapiens) (UniProt P51617); conditions: Compound concentration 1000.0 nM
[24] = system: Mast/stem cell growth factor receptor Kit (Homo sapiens), P10721 [V559D]; conditions: Compound concentration 1000.0 nM
[25] = system: Hepatocyte growth factor receptor (Homo sapiens), P08581 [M1250T]; conditions: Compound concentration 1000.0 nM
[26] = biological target: Rhodopsin kinase GRK1 (Homo sapiens) (UniProt Q15835); conditions: Compound concentration 1000.0 nM
Aurora kinase B = Aurora kinase B (Homo sapiens, UniProt Q96GD4); conditions: Compound concentration 1000.0 nM
[27] = biological target: Casein kinase I isoform alpha-like (Homo sapiens) (UniProt Q8N752); conditions: Compound concentration 1000.0 nM
Sequence of Casein kinase I isoform alpha-like (Homo sapiens) (Q8N752 whole entry, canonical isoform): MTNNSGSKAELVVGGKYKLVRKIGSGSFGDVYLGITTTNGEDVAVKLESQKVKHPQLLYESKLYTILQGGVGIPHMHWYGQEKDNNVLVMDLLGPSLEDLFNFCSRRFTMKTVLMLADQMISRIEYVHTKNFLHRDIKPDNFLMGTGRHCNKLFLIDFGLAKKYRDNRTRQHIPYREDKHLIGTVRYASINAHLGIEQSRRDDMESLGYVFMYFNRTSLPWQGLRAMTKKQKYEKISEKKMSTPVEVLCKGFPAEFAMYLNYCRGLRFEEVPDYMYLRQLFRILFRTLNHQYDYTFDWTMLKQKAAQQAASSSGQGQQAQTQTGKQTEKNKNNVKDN

[28] = biological target: Serine/threonine-protein kinase Nek5 (Homo sapiens) (UniProt Q6P3R8); conditions: Compound concentration 1000.0 nM
[29] = biological target: Bone morphogenetic protein receptor type-1A (Homo sapiens) (UniProt P36894); conditions: Compound concentration 1000.0 nM
[30] = system: Phosphatidylinositol 4,5-bisphosphate 3-kinase catalytic subunit alpha isoform (Homo sapiens), P42336 [M1043I]; conditions: Compound concentration 1000.0 nM
[31] = biological target: TGF-beta receptor type-2 (Homo sapiens) (UniProt P37173); conditions: Compound concentration 1000.0 nM
[32] = biological target: Serine/threonine-protein kinase N1 (Homo sapiens) (UniProt Q16512); conditions: Compound concentration 1000.0 nM
Sequence of Serine/threonine-protein kinase N1 (Homo sapiens) (Q16512 2-942 limits assumed): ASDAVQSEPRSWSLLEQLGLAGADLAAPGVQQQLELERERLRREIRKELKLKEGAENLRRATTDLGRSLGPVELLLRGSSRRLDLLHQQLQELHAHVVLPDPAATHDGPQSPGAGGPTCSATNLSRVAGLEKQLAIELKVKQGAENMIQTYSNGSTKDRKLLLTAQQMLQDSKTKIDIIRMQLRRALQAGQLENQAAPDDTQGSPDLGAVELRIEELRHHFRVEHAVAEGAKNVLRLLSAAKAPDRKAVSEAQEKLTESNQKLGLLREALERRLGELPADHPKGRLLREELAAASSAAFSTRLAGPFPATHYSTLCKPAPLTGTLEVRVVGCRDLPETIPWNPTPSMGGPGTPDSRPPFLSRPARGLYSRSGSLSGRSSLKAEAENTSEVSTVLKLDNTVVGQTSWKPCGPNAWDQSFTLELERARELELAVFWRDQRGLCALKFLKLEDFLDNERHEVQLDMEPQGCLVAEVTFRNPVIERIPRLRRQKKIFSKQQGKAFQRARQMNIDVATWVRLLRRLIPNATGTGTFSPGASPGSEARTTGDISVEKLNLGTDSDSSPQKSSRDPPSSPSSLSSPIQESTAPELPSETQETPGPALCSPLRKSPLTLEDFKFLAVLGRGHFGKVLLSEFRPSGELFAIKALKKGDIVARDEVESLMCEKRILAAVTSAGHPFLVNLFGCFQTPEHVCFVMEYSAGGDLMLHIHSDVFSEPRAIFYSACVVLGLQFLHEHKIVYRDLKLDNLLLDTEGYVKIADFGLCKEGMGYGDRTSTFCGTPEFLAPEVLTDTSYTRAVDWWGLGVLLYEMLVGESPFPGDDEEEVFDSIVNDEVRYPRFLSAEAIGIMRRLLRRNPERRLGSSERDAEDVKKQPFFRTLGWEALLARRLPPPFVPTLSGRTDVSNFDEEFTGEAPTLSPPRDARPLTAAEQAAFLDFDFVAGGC

[33] = biological target: Serine/threonine-protein kinase 35 (Homo sapiens) (UniProt Q8TDR2); conditions: Compound concentration 1000.0 nM
[34] = biological target: Serine/threonine-protein kinase Nek7 (Homo sapiens, UniProt Q8TDX7); conditions: Compound concentration 1000.0 nM
[35] = biological target: Serine/threonine-protein kinase Nek9 (Homo sapiens) (UniProt Q8TD19); conditions: Compound concentration 1000.0 nM
Sequence of Serine/threonine-protein kinase Nek9 (Homo sapiens) (Q8TD19 whole entry): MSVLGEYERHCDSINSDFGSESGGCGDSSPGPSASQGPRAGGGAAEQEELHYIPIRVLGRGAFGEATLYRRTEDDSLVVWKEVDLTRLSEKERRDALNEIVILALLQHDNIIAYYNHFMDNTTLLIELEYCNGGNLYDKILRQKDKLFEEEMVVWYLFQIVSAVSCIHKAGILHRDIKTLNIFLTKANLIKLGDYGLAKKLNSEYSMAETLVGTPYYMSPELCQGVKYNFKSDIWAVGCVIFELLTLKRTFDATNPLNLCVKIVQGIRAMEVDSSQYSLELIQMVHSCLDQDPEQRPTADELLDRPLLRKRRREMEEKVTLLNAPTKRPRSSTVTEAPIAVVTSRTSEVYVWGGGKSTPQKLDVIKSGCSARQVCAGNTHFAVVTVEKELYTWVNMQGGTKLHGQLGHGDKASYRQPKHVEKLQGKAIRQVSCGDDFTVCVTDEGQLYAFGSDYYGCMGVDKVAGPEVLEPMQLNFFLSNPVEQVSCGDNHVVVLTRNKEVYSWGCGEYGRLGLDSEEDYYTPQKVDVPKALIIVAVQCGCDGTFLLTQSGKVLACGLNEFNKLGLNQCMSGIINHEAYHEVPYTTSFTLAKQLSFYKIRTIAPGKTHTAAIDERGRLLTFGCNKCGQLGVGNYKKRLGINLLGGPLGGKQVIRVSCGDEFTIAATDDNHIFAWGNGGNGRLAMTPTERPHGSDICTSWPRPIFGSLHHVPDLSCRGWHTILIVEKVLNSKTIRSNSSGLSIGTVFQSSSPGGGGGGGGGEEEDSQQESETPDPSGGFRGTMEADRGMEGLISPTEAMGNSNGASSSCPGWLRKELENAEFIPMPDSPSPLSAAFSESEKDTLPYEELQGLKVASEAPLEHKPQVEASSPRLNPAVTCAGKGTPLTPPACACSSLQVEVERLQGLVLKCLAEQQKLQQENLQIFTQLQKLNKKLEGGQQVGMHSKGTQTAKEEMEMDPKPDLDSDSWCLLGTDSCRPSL

[36] = biological target: Serine/threonine-protein kinase RIO1 (Homo sapiens) (UniProt Q9BRS2); conditions: Compound concentration 1000.0 nM
Sequence of Serine/threonine-protein kinase RIO1 (Homo sapiens) (Q9BRS2 whole entry): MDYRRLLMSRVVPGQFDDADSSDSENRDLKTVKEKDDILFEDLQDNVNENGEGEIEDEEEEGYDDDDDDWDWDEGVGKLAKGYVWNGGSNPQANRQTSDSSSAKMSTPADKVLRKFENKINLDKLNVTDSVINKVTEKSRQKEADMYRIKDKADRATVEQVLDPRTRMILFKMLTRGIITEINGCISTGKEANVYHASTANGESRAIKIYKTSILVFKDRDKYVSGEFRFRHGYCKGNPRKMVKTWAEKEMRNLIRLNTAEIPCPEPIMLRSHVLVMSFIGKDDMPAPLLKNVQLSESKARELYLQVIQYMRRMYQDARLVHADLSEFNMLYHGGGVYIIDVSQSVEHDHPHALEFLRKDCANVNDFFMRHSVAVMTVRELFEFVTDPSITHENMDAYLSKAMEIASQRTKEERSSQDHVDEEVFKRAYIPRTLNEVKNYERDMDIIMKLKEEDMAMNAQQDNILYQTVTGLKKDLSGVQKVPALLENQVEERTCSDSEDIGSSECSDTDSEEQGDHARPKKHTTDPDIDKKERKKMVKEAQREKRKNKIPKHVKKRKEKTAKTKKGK

[37] = biological target: Serine/threonine-protein kinase tousled-like 1 (Homo sapiens) (UniProt Q9UKI8); conditions: Compound concentration 1000.0 nM

Sequence of 3-phosphoinositide-dependent protein kinase 1 (Homo sapiens) (O15530 whole entry): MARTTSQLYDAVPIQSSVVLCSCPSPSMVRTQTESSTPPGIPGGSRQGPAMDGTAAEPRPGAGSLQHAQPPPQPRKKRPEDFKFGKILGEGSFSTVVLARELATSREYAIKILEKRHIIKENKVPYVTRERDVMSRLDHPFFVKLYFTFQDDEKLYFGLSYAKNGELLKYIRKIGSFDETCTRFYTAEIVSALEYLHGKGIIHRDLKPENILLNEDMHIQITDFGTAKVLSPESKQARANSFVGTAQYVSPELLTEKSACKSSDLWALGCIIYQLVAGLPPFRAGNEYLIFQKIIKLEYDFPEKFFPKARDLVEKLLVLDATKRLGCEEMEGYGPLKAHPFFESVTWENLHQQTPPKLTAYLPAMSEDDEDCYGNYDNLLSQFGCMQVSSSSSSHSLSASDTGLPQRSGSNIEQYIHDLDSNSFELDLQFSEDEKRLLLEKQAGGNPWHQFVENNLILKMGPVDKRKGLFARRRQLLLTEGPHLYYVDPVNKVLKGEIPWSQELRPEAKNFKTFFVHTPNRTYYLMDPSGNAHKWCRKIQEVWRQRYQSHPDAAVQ
Sequence of Dual serine/threonine and tyrosine protein kinase (Homo sapiens) (Q6XUX3 whole entry): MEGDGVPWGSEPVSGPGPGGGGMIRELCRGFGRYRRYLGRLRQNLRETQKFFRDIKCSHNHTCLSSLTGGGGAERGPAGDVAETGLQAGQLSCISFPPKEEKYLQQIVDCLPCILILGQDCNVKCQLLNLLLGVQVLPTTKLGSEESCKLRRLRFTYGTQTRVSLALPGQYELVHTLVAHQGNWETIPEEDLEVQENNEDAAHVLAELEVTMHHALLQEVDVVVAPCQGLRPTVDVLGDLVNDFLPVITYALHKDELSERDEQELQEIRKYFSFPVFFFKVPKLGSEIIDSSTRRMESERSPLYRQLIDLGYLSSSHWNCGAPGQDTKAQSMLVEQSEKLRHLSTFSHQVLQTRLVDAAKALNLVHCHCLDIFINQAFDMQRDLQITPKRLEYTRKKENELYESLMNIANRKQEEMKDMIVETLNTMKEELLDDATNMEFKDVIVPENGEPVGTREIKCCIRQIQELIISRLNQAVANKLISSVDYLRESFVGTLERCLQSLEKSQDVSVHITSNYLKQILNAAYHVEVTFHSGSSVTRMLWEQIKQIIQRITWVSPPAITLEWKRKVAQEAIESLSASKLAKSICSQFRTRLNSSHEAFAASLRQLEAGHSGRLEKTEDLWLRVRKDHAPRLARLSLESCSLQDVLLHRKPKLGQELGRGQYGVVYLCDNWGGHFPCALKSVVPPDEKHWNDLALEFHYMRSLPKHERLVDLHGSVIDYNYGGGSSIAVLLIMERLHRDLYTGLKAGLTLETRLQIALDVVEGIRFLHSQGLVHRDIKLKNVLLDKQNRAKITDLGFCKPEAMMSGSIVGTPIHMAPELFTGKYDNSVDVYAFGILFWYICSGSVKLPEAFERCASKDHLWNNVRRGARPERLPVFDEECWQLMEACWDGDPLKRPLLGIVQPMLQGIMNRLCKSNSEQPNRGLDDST

`Cn1cncc1[C@](O)(COc1ccc(C#N)cc1-c1ccc(OC(F)(F)F)cc1)c1ccc(C#N)cc1` [ABT-100] gave a residual activity [1] of 90%, a residual activity [2] of 87% and a residual activity [3] of 84%. It also gave a residual activity [4] of 96%, a residual activity [5] of 100% and a residual activity [6] of 100%. The residual activity [7] was 100%, the inhibition [8] was 4.35% and the inhibition [9] was 9.99%. The residual activity [10] was 67%, the inhibition [11] was 23.3% and the residual activity [12] was 71%. It also gave a residual activity [13] of 77%, a residual activity [14] of 80% and a residual activity [15] of 100%. For the same molecule, the residual activity [16] was 77%, the residual activity [17] was 98% and the residual activity [18] was 100%. For the same molecule, the residual activity [19] was 85%, the residual activity [20] was 72% and the residual activity [21] was 100%. For the same molecule, the inhibition [22] was 6.8%, the residual activity [23] was 83% and the residual activity [24] was 100%. It also gave a residual activity [25] of 100%, a residual activity [26] of 95% and a residual activity (Aurora kinase B) of 100%. The residual activity [27] was 74%, the residual activity [28] was 72% and the residual activity [29] was 91%. For the same molecule, the residual activity [30] was 100%, the residual activity [31] was 100% and the residual activity [32] was 100%. For the same molecule, the residual activity [33] was 100%, the residual activity [34] was 46% and the residual activity [35] was 72%. The residual activity [36] was 72% and the residual activity [37] was 100%.
Molecule `Cn1cncc1[C@@](O)(COc1ccc(C#N)cc1-c1ccc(OC(F)(F)F)cc1)c1ccc(C#N)cc1` [A-108] has a residual activity [1] of 100%, a residual activity [2] of 96% and a residual activity [3] of 69%. The residual activity [4] was 100%, the residual activity [5] was 100% and the residual activity [6] was 92%. For the same molecule, the residual activity [7] was 100%, the inhibition [8] was 19% and the inhibition [9] was 6.63%. For the same molecule, the residual activity [10] was 97%, the inhibition [11] was 2.79% and the residual activity [12] was 100%. The residual activity [13] was 96%, the residual activity [14] was 60% and the residual activity [15] was 94%. It also gave a residual activity [16] of 100%, a residual activity [17] of 100% and a residual activity [18] of 97%. It also gave a residual activity [19] of 100%, a residual activity [20] of 82% and a residual activity [21] of 100%. The inhibition [22] was -9.7%, the residual activity [23] was 73% and the residual activity [24] was 97%. For the same molecule, the residual activity [25] was 97%, the residual activity [26] was 100% and the residual activity (Aurora kinase B) was 100%. The residual activity [27] was 100%, the residual activity [28] was 98% and the residual activity [29] was 100%. For the same molecule, the residual activity [30] was 72%, the residual activity [31] was 96% and the residual activity [32] was 100%. The residual activity [33] was 100%, the residual activity [34] was 99% and the residual activity [35] was 100%. It also gave a residual activity [36] of 100% and a residual activity [37] of 100%.
